Experimental data taken from the supplement of paper PMC10307832.

How the values were obtained:
Experiment in all cases: relative viability (nuclei count vs DMSO), 5 days (fraction); higher = more cells survive
NCI-H520 = test system: NCI-H520
In short: (§1)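 Nuclei were stained with Hoechst during a one-step fixation (final 0.05% Triton X-100, 1% formaldehyde, 1 ug/ml Hoechst) carried out 5 days after dosing, then counted on 4× images. The cells, lung cancer lines in 1536-well plates, had been dosed by pin tool the day after seeding with one drug alone or a fixed anchor-drug dose plus five library-drug doses (not always all listed) in √10 steps. Relative viability is the nuclei count in treated wells divided by that in vehicle wells, and each value is the median of duplicate plates.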

ChaGo-K-1 = test system: ChaGo-K-1
In short: as §1

NCI-H23 = test system: NCI-H23
In short: as §1

NCI-H1563 = test system: NCI-H1563
In short: as §1

EKVX = test system: EKVX
In short: as §1

COR-L 105 = test system: COR-L 105
In short: as §1

NCI-H441 = test system: NCI-H441
In short: as §1

NCI-H1666 = test system: NCI-H1666
In short: as §1

PC-3 [JPC-3] = test system: PC-3 [JPC-3]
In short: as §1

NCI-H1734 = test system: NCI-H1734
In short: as §1

A-427 = test system: A-427
In short: as §1

For `Cc1sc2c(c1C)C(c1ccc(Cl)cc1)=N[C@@H](CC(=O)OC(C)(C)C)c1nnc(C)n1-2` [JQ1] + N=C(N)NC(=N)NCCc1ccccc1 [Phenformin] (partner 250 µM), the relative viability (NCI-H520; first compound 0.04 µM) was 0.475, the relative viability (NCI-H520; first compound 0.1265 µM) was 0.614 and the relative viability (NCI-H520; first compound 0.4 µM) was 0.544. The relative viability (NCI-H520; first compound 1.265 µM) was 0.275, the relative viability (NCI-H520; first compound 4 µM) was 0.321 and the relative viability (ChaGo-K-1; first compound 0.04 µM) was 0.436. It also gave a relative viability (ChaGo-K-1; first compound 0.1265 µM) of 0.495, a relative viability (ChaGo-K-1; first compound 0.4 µM) of 0.401 and a relative viability (ChaGo-K-1; first compound 1.265 µM) of 0.324. It also gave a relative viability (ChaGo-K-1; first compound 4 µM) of 0.286, a relative viability (NCI-H23; first compound 0.04 µM) of 0.749 and a relative viability (NCI-H23; first compound 0.1265 µM) of 0.768. It also gave a relative viability (NCI-H23; first compound 0.4 µM) of 0.812, a relative viability (NCI-H23; first compound 1.265 µM) of 0.414 and a relative viability (NCI-H23; first compound 4 µM) of 0.592. The relative viability (NCI-H1563; first compound 0.04 µM) was 0.672, the relative viability (NCI-H1563; first compound 0.1265 µM) was 0.571 and the relative viability (NCI-H1563; first compound 0.4 µM) was 0.682. It also gave a relative viability (NCI-H1563; first compound 1.265 µM) of 0.596, a relative viability (NCI-H1563; first compound 4 µM) of 0.568 and a relative viability (EKVX; first compound 0.04 µM) of 0.257. The relative viability (EKVX; first compound 0.1265 µM) was 0.257, the relative viability (EKVX; first compound 0.4 µM) was 0.27 and the relative viability (EKVX; first compound 1.265 µM) was 0.243. For the same compound, the relative viability (EKVX; first compound 4 µM) was 0.218, the relative viability (COR-L 105; first compound 0.04 µM) was 0.432 and the relative viability (COR-L 105; first compound 0.1265 µM) was 0.239. It also gave a relative viability (COR-L 105; first compound 0.4 µM) of 0.217, a relative viability (COR-L 105; first compound 1.265 µM) of 0.22 and a relative viability (COR-L 105; first compound 4 µM) of 0.289. For the same compound, the relative viability (NCI-H441; first compound 0.04 µM) was 0.728, the relative viability (NCI-H441; first compound 0.1265 µM) was 0.778 and the relative viability (NCI-H441; first compound 0.4 µM) was 0.681. The relative viability (NCI-H441; first compound 1.265 µM) was 0.388, the relative viability (NCI-H441; first compound 4 µM) was 0.289 and the relative viability (NCI-H1666; first compound 0.04 µM) was 0.572. The relative viability (NCI-H1666; first compound 0.1265 µM) was 0.596, the relative viability (NCI-H1666; first compound 0.4 µM) was 0.501 and the relative viability (NCI-H1666; first compound 1.265 µM) was 0.516. For the same compound, the relative viability (NCI-H1666; first compound 4 µM) was 0.486, the relative viability (PC-3 [JPC-3]; first compound 0.04 µM) was 0.466 and the relative viability (PC-3 [JPC-3]; first compound 0.1265 µM) was 0.474. It also gave a relative viability (PC-3 [JPC-3]; first compound 0.4 µM) of 0.46, a relative viability (PC-3 [JPC-3]; first compound 1.265 µM) of 0.461 and a relative viability (PC-3 [JPC-3]; first compound 4 µM) of 0.376. It also gave a relative viability (NCI-H1734; first compound 0.04 µM) of 0.326, a relative viability (NCI-H1734; first compound 0.1265 µM) of 0.312 and a relative viability (NCI-H1734; first compound 0.4 µM) of 0.336. It also gave a relative viability (NCI-H1734; first compound 1.265 µM) of 0.251, a relative viability (NCI-H1734; first compound 4 µM) of 0.23 and a relative viability (A-427; first compound 0.04 µM) of 0.315. For the same compound, the relative viability (A-427; first compound 0.1265 µM) was 0.241, the relative viability (A-427; first compound 0.4 µM) was 0.341 and the relative viability (A-427; first compound 1.265 µM) was 0.276.
